“And” between values parts separate entries of the source, which are not always exact repeats. Identical values can stand only once. Marks after values point to notes of the source that are not given here.
Assays:
[1] = set-up: method as in Olsen et al. 2009; details: occupationally exposed workers; ref Olsen et al. 2009; cited from earlier work
[2] = PFAS levels in serum samples of airport employees (LC/MS/MS)
Procedure, shortened: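 LC/MS/MS quantification (BEH C18, 5 mM ammonium acetate water:methanol to methanol gradient) after protein precipitation of 25 μL serum with isotopically labeled internal standards, FBS-matrix calibration. Samples stored at −80°C, collected at monthly intervals from September 2018 and run together in a single batch.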

[3] = 1st sampling (September 2018), count 17
[4] = 2nd sampling (October 2018), count 17
[5] = 3rd sampling (November, 2018), count 17
[6] = 4th sampling (December 2018), count 16
[7] = 5th sampling (January 2019), count 16
[8] = first serum samples, all 26 airport employees
[9] = median of first serum samples, all 26 airport employees

In the case of O=S(=O)(O)C(F)(F)C(F)(F)C(F)(F)C(F)(F)F [PFBS, perfluorobutane sulfonic acid], the “Serum level, average” value [1] is given as 397 ng/mL, the “Serum PFAS level, 25 percentile” value [2, 3] is given as 0.32 and the “Serum PFAS level, 75 percentile” value [2, 3] is given as 0.68. For the same compound, the “Serum PFAS level, Max” value [2, 3] was 1.3, the “Serum PFAS level, Median” value [2, 3] was 0.46 and the “Serum PFAS level, Min” value [2, 3] was 0.22. The “Serum PFAS level, 25 percentile” value [2, 4] was 0.11, the “Serum PFAS level, 75 percentile” value [2, 4] was 0.31 and the “Serum PFAS level, Max” value [2, 4] was 0.70. The “Serum PFAS level, Median” value [2, 4] was 0.17, the “Serum PFAS level, Min” value [2, 4] was “< LOD” and the “Serum PFAS level, 25 percentile” value [2, 5] was “< LOD”. The “Serum PFAS level, 75 percentile” value [2, 5] was 0.28, the “Serum PFAS level, Max” value [2, 5] was 0.65 and the “Serum PFAS level, Median” value [2, 5] was 0.09. For the same compound, the “Serum PFAS level, Min” value [2, 5] was “< LOD”, the “Serum PFAS level, 25 percentile” value [2, 6] was “< LOD” and the “Serum PFAS level, 75 percentile” value [2, 6] was 0.24. The “Serum PFAS level, Max” value [2, 6] was 0.52, the “Serum PFAS level, Median” value [2, 6] was 0.08 and the “Serum PFAS level, Min” value [2, 6] was “< LOD”. For the same compound, the “Serum PFAS level, 25 percentile” value [2, 7] was “< LOD”, the “Serum PFAS level, 75 percentile” value [2, 7] was 0.11 and the “Serum PFAS level, Max” value [2, 7] was 0.30. The “Serum PFAS level, Median” value [2, 7] was 0.06, the “Serum PFAS level, Min” value [2, 7] was “< LOD” and the “Serum level in the first samples, median (range)” value ([2]; all 26 airport employees) was 0.33 ( <LOD –1.3) ng/mL. For the same compound, the “PFAS in first serum sample, median (range)” value ([2]; employees participated in first blood sampling and repeated blood and urine sampling, N=17) was 0.46 ng/mL and 0.46 (0.22–1.3) ng/mL, the “PFAS in first serum sample, median (range)” value ([2]; employees participated in first blood sampling only, N=9, 11-14 d after end of exposure) was 0.10 ( <LOD –1.0)^d ng/mL and the “Initial serum PFAS level, max” value ([2]; females (N=7)) was 1.3 ng/mL. The “Initial serum PFAS level, median” value ([2]; females (N=7)) was 0.39 ng/mL, the “Initial serum PFAS level, min” value ([2]; females (N=7)) was 0.06 ng/mL and the “Relative composition of PFAS in serum, molar concentration basis” value [2, 8] was 0.4%. The “Relative composition of PFAS in serum, weight basis” value [2, 8] was 0.3%, the “Initial serum PFAS level, Max” value ([2]; males (N=19)) was 1.1 ng/mL and the “Initial serum PFAS level, Min” value ([2]; males (N=19)) was “< LOD”. For the same compound, the “Initial serum PFAS level, median” value ([2]; males (N=19)) was 0.32 ng/mL, the “Serum concentration, molar basis” value [2, 9] was 0.0011 and the “Serum concentration, weight basis” value [2, 9] was 0.33.

— publication PMC7351026, “Serum Half-Lives for Short- and Long-Chain Perfluoroalkyl Acids after Ceasing Exposure from Drinking Water Contaminated by Firefighting Foam” (Environmental Health Perspectives, 2020)
